The structures appear in SMILES notation.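 Exposure lasted 48 hours, with cells grown in 96-well plates and compounds tested at five concentrations. GI50 = concentration required for 50% inhibition of growth.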 Activity calls are given as the source filed them. No stated cut-off is given here; in the data, active = GI50 up to about 1.1 µM and inactive = higher. Some results are limits rather than exact numbers.

Among the test systems are UO-31; OVCAR-5; HT-29; NCI-H460; PC-3; MDA-N; SR; OVCAR-8; KM12; UACC-257; NCI-H522; IGROV-1; RPMI-8226; SK-MEL-2; A498; HOP-62; K562; RXF 393; SK-OV-3.
Holding throughout (test): DTP human tumour cell line panel, 48 h

As usually defined, the GI50 is the concentration giving 50% growth inhibition. For `CC(=O)ON(C(C)=O)c1ccc(-c2nc3ccccc3s2)cc1C`, the GI50 in the test with UO-31 is 50.2 µM (inactive); in the test with OVCAR-5 it was 4.28 µM (inactive); in the test on HT-29, 32 µM (inactive); in the test with NCI-H460, 21.3 µM (inactive); in the test on PC-3 it was 30.5 µM (inactive); with MDA-N it was 75.5 µM (inactive). Further, the GI50 in the test with SR was 29.2 µM (inactive); with OVCAR-8, 52.1 µM (inactive); with KM12, 47.4 µM (inactive); in the test on UACC-257, 50 µM (inactive); in the test with NCI-H522, 38.5 µM (inactive); with IGROV-1, 13 µM (inactive). In addition, the GI50 in the test with RPMI-8226 is 48.2 µM (inactive); in the test with SK-MEL-2 it was > 100 µM (inactive); with A498, 5.11 µM (inactive); in the test on HOP-62, 21.2 µM (inactive); in the test on K562 it was 45.2 µM (inactive).
For `O=C(O)c1cc(O)nc(SCc2ccccc2)n1`, the GI50 in the test on UO-31, in the test with OVCAR-5, in the test with HT-29, in the test on NCI-H460, in the test on PC-3 and with MDA-N was > 100 µM (inactive) in each case. In addition, the GI50 in the test with SR, in the test on OVCAR-8, in the test on KM12, in the test on UACC-257, in the test on NCI-H522 and in the test on IGROV-1 was > 100 µM (inactive) in each case. The GI50 in the test on SK-MEL-2, with A498, in the test with RXF 393, in the test with HOP-62 and with K562 was > 100 µM (inactive) each time.
Turning to `Cn1c(=O)c(Br)c(C=O)n(CCO[N+](=O)[O-])c1=O`, the GI50 with UO-31 is > 10 µM (inactive); with OVCAR-5, 3.88 µM (inactive); in the test with NCI-H460, 15.9 µM (inactive); with PC-3 it was 9.14 µM (inactive); with MDA-N, 4.23 µM (inactive); in the test with SR it was 2.16 µM (inactive). Besides, the GI50 is 2.52 µM (inactive) in the test with OVCAR-8; 2.26 µM (inactive) in the test with RPMI-8226; 3.59 µM (inactive) in the test on SK-MEL-2; 18.2 µM (inactive) in the test with A498; 21.6 µM (inactive) in the test with HOP-62; 2.66 µM (inactive) with K562. In addition, in the test on SK-OV-3, the GI50 was 18.5 µM (inactive).
Take `CC(C)(C)NC(NC(C)(C)C)=C(C(Cl)=C(Cl)Cl)[N+](=O)[O-]`: the GI50 with UO-31 was 42.7 µM (inactive); in the test with OVCAR-5, > 100 µM (inactive); in the test on HT-29, > 100 µM (inactive); in the test on NCI-H460, > 100 µM (inactive); in the test with PC-3 it was > 100 µM (inactive); in the test with MDA-N, > 100 µM (inactive). Moreover, the GI50 is > 100 µM (inactive) in the test on SR; > 100 µM (inactive) in the test on OVCAR-8; > 100 µM (inactive) with KM12; 67.6 µM (inactive) with UACC-257; > 100 µM (inactive) in the test on IGROV-1; > 100 µM (inactive) in the test on RPMI-8226. Also, the GI50 in the test with A498, in the test with RXF 393, in the test on HOP-62, with K562 and with SK-OV-3 was > 100 µM (inactive) in each case.
Regarding `COc1ccc(NC(=S)N/N=C(\C)c2nc3cccnc3[nH]2)cc1`, the GI50 in the test on UO-31 was 1.97 µM (inactive); with OVCAR-5, 6.11 µM (inactive); with HT-29, 5.37 µM (inactive); in the test with NCI-H460 it was 2.94 µM (inactive); in the test with PC-3 it was 4.48 µM (inactive); with MDA-N, 11.7 µM (inactive). For the same compound, the GI50 with SR is 3.86 µM (inactive); with OVCAR-8, 3.19 µM (inactive); with KM12, 5.47 µM (inactive); in the test on UACC-257, 3.52 µM (inactive); with NCI-H522 it was 7.03 µM (inactive); with IGROV-1, 5.55 µM (inactive). For the same compound, the GI50 is 4.35 µM (inactive) in the test with RPMI-8226; 16.4 µM (inactive) in the test on SK-MEL-2; 14.3 µM (inactive) in the test with A498; 7.5 µM (inactive) in the test with HOP-62; 3.58 µM (inactive) in the test on K562; 13.5 µM (inactive) in the test with SK-OV-3.
As for `C#CC(O)/C=C/CCCCCCC#CC/C=C\CC#CCCCCCC/C=C/C(O)C#C` (centres undefined), the 50% growth inhibitory concentration (GI50) in the test with UO-31 is 0.264 µM (active); in the test on OVCAR-5 it was 2.48 µM (inactive); with HT-29 it was 2.06 µM (inactive); in the test on NCI-H460, 4.35 µM (inactive); with PC-3, 11.6 µM (inactive); with MDA-N it was 2.24 µM (inactive). Moreover, the GI50 with SR was 2.54 µM (inactive); with OVCAR-8, 3.03 µM (inactive); in the test with KM12 it was 2.32 µM (inactive); in the test on UACC-257, 2.39 µM (inactive); in the test on IGROV-1, 0.561 µM (active); with SK-MEL-2 it was 2.99 µM (inactive). For the same compound, the GI50 with A498 is 3.21 µM (inactive); in the test with RXF 393, 14.1 µM (inactive); with HOP-62 it was 2.1 µM (inactive); with K562, 2.05 µM (inactive); in the test with SK-OV-3, 18 µM (inactive).
For the compound `COc1ccc(NC(=O)CC(=O)N2N=C(N3CCCCC3)CC2c2ccccc2)cc1` (centres undefined), the GI50 with UO-31, with OVCAR-5, with HT-29, in the test with NCI-H460, in the test on PC-3 and in the test on MDA-N was > 100 µM (inactive) each time. Further, the GI50 with SR, in the test on OVCAR-8, in the test with KM12, in the test on UACC-257, in the test with NCI-H522 and with IGROV-1 was > 100 µM (inactive) in each case. In addition, the GI50 with SK-MEL-2, with A498, in the test on RXF 393 and in the test with HOP-62 was > 100 µM (inactive) each time.
Take `Cc1ccsc1C(=O)C(CC(=O)c1cccs1)c1ccsc1` (centres undefined): the GI50 with UO-31 was 54.1 µM (inactive); with OVCAR-5, > 100 µM (inactive); in the test on HT-29, 93.1 µM (inactive); with NCI-H460, 33.5 µM (inactive); with PC-3 it was 45.8 µM (inactive); in the test with MDA-N it was 64.6 µM (inactive). In addition, the GI50 in the test on SR was 62.8 µM (inactive); in the test on OVCAR-8, > 100 µM (inactive); in the test with KM12, > 100 µM (inactive); in the test on UACC-257, > 100 µM (inactive); with NCI-H522, > 100 µM (inactive); in the test with IGROV-1, > 100 µM (inactive). Also, the GI50 with A498, with RXF 393, in the test on HOP-62, with K562 and with SK-OV-3 was > 100 µM (inactive) in each case.
For the compound `OCc1ccc2c(c1)CC1(Cc3ccccc3C1)C2`, the GI50 in the test on UO-31 was 11.8 µM (inactive); in the test on HT-29 it was 16.8 µM (inactive); in the test on NCI-H460 it was 19.6 µM (inactive); in the test with PC-3, 10.8 µM (inactive); in the test on MDA-N it was 4.86 µM (inactive); with SR, 22.3 µM (inactive). Further, the GI50 in the test on OVCAR-8 was 21.2 µM (inactive); with KM12, 14.4 µM (inactive); in the test on UACC-257, 15.1 µM (inactive); with NCI-H522 it was 22.5 µM (inactive); in the test on IGROV-1, > 10 µM (inactive); with RPMI-8226, 15.8 µM (inactive). In addition, the GI50 in the test with A498 was 26.7 µM (inactive); in the test with RXF 393, 15.7 µM (inactive); in the test with HOP-62 it was 25.6 µM (inactive); with K562 it was 7.11 µM (inactive); in the test on SK-OV-3, 25.6 µM (inactive).
With `COc1cc(C=C(c2ccc(N(C)C)cc2)c2ccc(N(C)C)cc2)c2ccccc2c1OC`, the GI50 was > 100 µM (inactive) in the test with UO-31; > 100 µM (inactive) in the test with OVCAR-5; 19 µM (inactive) in the test with HT-29; 96.2 µM (inactive) in the test on NCI-H460; 41.6 µM (inactive) in the test with PC-3; 16.2 µM (inactive) in the test with MDA-N. For the same compound, the GI50 with SR was 22.3 µM (inactive); in the test on OVCAR-8, > 100 µM (inactive); in the test with KM12 it was 38.4 µM (inactive); in the test with UACC-257 it was 76.7 µM (inactive); with NCI-H522 it was 25.4 µM (inactive); in the test with IGROV-1 it was > 100 µM (inactive). In addition, the GI50 in the test on RPMI-8226 is 45.8 µM (inactive); with SK-MEL-2, 33.9 µM (inactive); in the test on RXF 393, > 100 µM (inactive); in the test on HOP-62, 64 µM (inactive); in the test with K562, 17.5 µM (inactive); in the test with SK-OV-3, > 100 µM (inactive).
For `Cc1cc(C)c(S(=O)(=O)N2CCCN(S(=O)(=O)c3c(C)cc(C)cc3C)OCCCON(S(=O)(=O)c3c(C)cc(C)cc3C)CCCN(S(=O)(=O)c3c(C)cc(C)cc3C)OCCCO2)c(C)c1`, the GI50 in the test with UO-31, in the test with OVCAR-5, in the test on HT-29, in the test on NCI-H460, in the test with PC-3 and in the test on MDA-N was > 100 µM (inactive) throughout. For the same compound, the GI50 in the test with SR, in the test on OVCAR-8, in the test with KM12, in the test on UACC-257, with NCI-H522 and in the test with IGROV-1 was > 100 µM (inactive) in each case. Besides, the GI50 in the test on RPMI-8226 was 67.3 µM (inactive); with SK-MEL-2 it was > 100 µM (inactive); in the test on RXF 393 it was 61.1 µM (inactive); in the test on HOP-62 it was > 100 µM (inactive); in the test with K562, > 100 µM (inactive); with SK-OV-3 it was > 100 µM (inactive).
For `CCn1nc(-c2ccccc2)c2c1N(C)c1ccccc1-n1c(-c3ccccc3)nnc1-2`, the GI50 in the test with UO-31 is 14.2 µM (inactive); in the test with OVCAR-5, 19.4 µM (inactive); in the test with NCI-H460 it was 14.3 µM (inactive); with PC-3, 13.2 µM (inactive); with MDA-N, 15.1 µM (inactive); in the test on SR it was 14.4 µM (inactive). Also, the GI50 with OVCAR-8 is 20.9 µM (inactive); in the test with IGROV-1, 19.9 µM (inactive); in the test with RPMI-8226, 9.68 µM (inactive); in the test on SK-MEL-2, 17.3 µM (inactive); in the test on A498, 1.46 µM (inactive); in the test on HOP-62, 17.9 µM (inactive). Moreover, the GI50 was 17.1 µM (inactive) with K562 and 18.9 µM (inactive) in the test on SK-OV-3.
